Experimental data reported in patent US20120190752A1, “EXO-S-MECAMYLAMINE METHOD, USE, AND COMPOUND FOR TREATMENT” (Targacept Inc., priority 2009, published 2012).

Tested on: subjects with major depressive disorder (MDD) who were inadequate responders to citalopram
Experiment: HAMD-17 total score, Phase 2b trial of TC-5214 as add-on to citalopram
Format: in vivo, human
Conditions: for HAMD-17 total score, observed Mean / HAMD-17 total score, observed Median / HAMD-17 Remission (Score ≦7): Subjects with Remission (number) / HAMD-17 Remission (Score ≦7): Subjects with Remission (percentage) / HAMD-17 Remission (Score ≦7): Subjects without Remission (number) / HAMD-17 Remission (Score ≦7): Subjects without Remission (percentage) / HAMD-17 Remission (Score ≦10): Subjects with Remission (number) / HAMD-17 Remission (Score ≦10): Subjects with Remission (percentage) / HAMD-17 Remission (Score ≦10): Subjects without Remission (number) / HAMD-17 Remission (Score ≦10): Subjects without Remission (percentage) / HAMD-17 reduction from baseline ≧50%: Subjects with Response (number) / HAMD-17 reduction from baseline ≧50%: Subjects with Response (percentage) / HAMD-17 reduction from baseline ≧50%: Subjects without Response (number) / HAMD-17 reduction from baseline ≧50%: Subjects without Response (percentage) / HAMD-17 Adjusted Mean change / HAMD-17 Mean Difference between TC-5214 and Placebo: PP; for primary outcome: mean change between TC-5214 and placebo from baseline on HAM-D (HAMD-17 total score): intent to treat, Week 8 to Week 16 LOCF, result in words
Source text: The Hamilton Rating Scale for Depression (HRSD), also known as the Hamilton Depression Rating Scale (HDRS) or abbreviated to HAM-D or HAMD, is a multiple choice questionnaire that clinicians may use to rate the severity of a patient's major depression (Hamilton 1967). The questionnaire rates the severity of symptoms observed in depression such as low mood, insomnia, agitation, anxiety and weight loss. The questionnaire is presently one of the most commonly used scales for rating depression in medical research. The clinician chooses the possible responses to each question by interviewing the patient and by observing the patient's symptoms. Each question has multiple possible responses which increase in severity. Although Hamilton's original scale had 17 questions, others later developed HRSD scales with different numbers of questions, the greatest of which is 29 (HRSD-29). Clinicians can use the HRSD in place of, or in conjunction with, the Montgomery-Åsberg Depression Rating Scale (MADRS), the Beck Depression Inventory (BDI), the Zung Self-Rating Depression Scale, the Wechsler Depression Rating Scale, the […] Depression Rating Scale, the Inventory of Depressive Symptomatology (IDS), the Quick Inventory of Depressive Symptomatology (QIDS), and other questionnaires. […] The results on all of the trial's secondary efficacy measures, including assessments of depression, irritability, disability, cognition, severity of illness and global improvement, were also statistically significant in favor of TC-5214 on an intent to treat basis. The Phase 2b trial of TC-5214 as an augmentation treatment for MDD was a two-phase trial conducted at 20 sites in India and three sites in the United States. In the first phase, 579 subjects with MDD received first-line treatment with citalopram hydrobromide for eight weeks, 20 mg daily for the first four weeks and 40 mg daily for the next four weeks. Citalopram, an approved treatment for MDD marketed in the United States as […]®, is from the drug class known as selective serotonin reuptake inhibitors. At the end of the eight weeks, subjects whose MADRS score had improved less than 50 percent and whose CGI-SI score was no lower than 4 were considered partial or non responders and randomized into the double blind second phase of the trial. In the double blind second phase, subjects continued their citalopram treatment and also received either add-on TC-5214 or add-on placebo for an additional eight weeks. The daily dosage of TC-5214 was initially 2 mg and could be increased at the discretion of the investigator to 4 mg and to 8 mg based on tolerability and therapeutic response. The primary outcome measure for the trial was mean change between TC-5214 and placebo from double blind baseline as measured by HAM-D at week 16. The intent to treat dataset included 265 subjects in the second phase. In more detail, a multi-center double-blind, randomized, placebo-controlled, parallel group, flexible dose titration study of TC-5214 as adjunctive therapy in subjects with major depressive disorder (MDD) who were inadequate responders to citalopram was conducted in centers in the US and India. The study consisted of a screening period, baseline/washout period, open-label phase, double-blind phase, and a follow-up visit. Subject participation in the study could continue for up to 16 weeks of treatment. Following a washout period of up to 28 days for other antidepressants, subjects with MDD and a MADRS total score >/=28 and a Clinical Global Impression-Severity (CGI-S) score >/=4 were enrolled on Day 1 into an open-label citalopram-only phase of the study. This phase lasted 8 weeks, with citalopram (CIT) dose increased from a once-daily dose of 20 mg (Day 1 through Week 4) to 40 mg (Week 4 through Week 8). A total of 579 subjects entered the open-label citalopram phase. […]

[1] = Double Blind Week 8 (Baseline), before TC-5214
[2] = Double Blind Week 16 LOCF (change from Week 8)
[3] = Double Blind Week 18 (Follow-up)
[4] = Double Blind Week 18 LOCF (Follow-up)
[5] = Double Blind Week 18 LOCF (Follow-up), change from Week 16

CNC1(C)C2CCC(C2)C1(C)C (stereo in doubt) [TC-5214, (S)—N,2,3,3-tetramethylnorbornan-2-amine]
HAMD-17 Adj. Mean change (ITT, change from Week 8 (double-blind baseline) to Week 16 LOCF, add-on to citalopram): −13.75 | onset of separation from placebo, remission rates HAMD≦7 (FIG. 1) (ITT, week of double-blind treatment): ≤ 2 week | HAMD-17 total score, observed Mean [1]: 23.7 | HAMD-17 total score, observed Median [1]: 24.0 | HAMD-17 Remission (Score ≦7): Subjects with Remission (number) (Double Blind Week 9): 1 | HAMD-17 Remission (Score ≦7): Subjects with Remission (percentage) (Double Blind Week 9): (1%) | HAMD-17 Remission (Score ≦7): Subjects without Remission (number) (Double Blind Week 9): 112 | HAMD-17 Remission (Score ≦7): Subjects without Remission (percentage) (Double Blind Week 9): (99%) | HAMD-17 Remission (Score ≦10): Subjects with Remission (number) (Double Blind Week 9): 3 | HAMD-17 Remission (Score ≦10): Subjects with Remission (percentage) (Double Blind Week 9): (3%) | HAMD-17 Remission (Score ≦10): Subjects without Remission (number) (Double Blind Week 9): 110 | HAMD-17 Remission (Score ≦10): Subjects without Remission (percentage) (Double Blind Week 9): (97%) | HAMD-17 reduction from baseline ≧50%: Subjects with Response (number) (Double Blind Week 9): 3 | HAMD-17 reduction from baseline ≧50%: Subjects with Response (percentage) (Double Blind Week 9): (3%) | HAMD-17 reduction from baseline ≧50%: Subjects without Response (number) (Double Blind Week 9): 110 | HAMD-17 reduction from baseline ≧50%: Subjects without Response (percentage) (Double Blind Week 9): (97%) | HAMD-17 Remission (Score ≦7): Subjects with Remission (number) (Double Blind Week 10): 4 | HAMD-17 Remission (Score ≦7): Subjects with Remission (percentage) (Double Blind Week 10): (4%) | HAMD-17 Remission (Score ≦7): Subjects without Remission (number) (Double Blind Week 10): 109 | HAMD-17 Remission (Score ≦7): Subjects without Remission (percentage) (Double Blind Week 10): (96%) | HAMD-17 Remission (Score ≦10): Subjects with Remission (number) (Double Blind Week 10): 16 | HAMD-17 Remission (Score ≦10): Subjects with Remission (percentage) (Double Blind Week 10): (14%) | HAMD-17 Remission (Score ≦10): Subjects without Remission (number) (Double Blind Week 10): 97 | HAMD-17 Remission (Score ≦10): Subjects without Remission (percentage) (Double Blind Week 10): (86%) | HAMD-17 reduction from baseline ≧50%: Subjects with Response (number) (Double Blind Week 10): 20 | HAMD-17 reduction from baseline ≧50%: Subjects with Response (percentage) (Double Blind Week 10): (18%) | HAMD-17 reduction from baseline ≧50%: Subjects without Response (number) (Double Blind Week 10): 93 | HAMD-17 reduction from baseline ≧50%: Subjects without Response (percentage) (Double Blind Week 10): (82%) | HAMD-17 Remission (Score ≦7): Subjects with Remission (number) (Double Blind Week 12): 16 | HAMD-17 Remission (Score ≦7): Subjects with Remission (percentage) (Double Blind Week 12): (14%) | HAMD-17 Remission (Score ≦7): Subjects without Remission (number) (Double Blind Week 12): 97 | HAMD-17 Remission (Score ≦7): Subjects without Remission (percentage) (Double Blind Week 12): (86%) | HAMD-17 Remission (Score ≦10): Subjects with Remission (number) (Double Blind Week 12): 36 | HAMD-17 Remission (Score ≦10): Subjects with Remission (percentage) (Double Blind Week 12): (32%) | HAMD-17 Remission (Score ≦10): Subjects without Remission (number) (Double Blind Week 12): 77 | HAMD-17 Remission (Score ≦10): Subjects without Remission (percentage) (Double Blind Week 12): (68%) | HAMD-17 reduction from baseline ≧50%: Subjects with Response (number) (Double Blind Week 12): 40 | HAMD-17 reduction from baseline ≧50%: Subjects with Response (percentage) (Double Blind Week 12): (35%) | HAMD-17 reduction from baseline ≧50%: Subjects without Response (number) (Double Blind Week 12): 73 | HAMD-17 reduction from baseline ≧50%: Subjects without Response (percentage) (Double Blind Week 12): (65%) | HAMD-17 Remission (Score ≦7): Subjects with Remission (number) (Double Blind Week 14): 35 | HAMD-17 Remission (Score ≦7): Subjects with Remission (percentage) (Double Blind Week 14): (31%) | HAMD-17 Remission (Score ≦7): Subjects without Remission (number) (Double Blind Week 14): 78 | HAMD-17 Remission (Score ≦7): Subjects without Remission (percentage) (Double Blind Week 14): (69%) | HAMD-17 Remission (Score ≦10): Subjects with Remission (number) (Double Blind Week 14): 53 | HAMD-17 Remission (Score ≦10): Subjects with Remission (percentage) (Double Blind Week 14): (47%) | HAMD-17 Remission (Score ≦10): Subjects without Remission (number) (Double Blind Week 14): 60 | HAMD-17 Remission (Score ≦10): Subjects without Remission (percentage) (Double Blind Week 14): (53%) | HAMD-17 reduction from baseline ≧50%: Subjects with Response (number) (Double Blind Week 14): 67 | HAMD-17 reduction from baseline ≧50%: Subjects with Response (percentage) (Double Blind Week 14): (59%) | HAMD-17 reduction from baseline ≧50%: Subjects without Response (number) (Double Blind Week 14): 46 | HAMD-17 reduction from baseline ≧50%: Subjects without Response (percentage) (Double Blind Week 14): (41%) | HAMD-17 Remission (Score ≦7): Subjects with Remission (number) (Double Blind Week 16): 50 | HAMD-17 Remission (Score ≦7): Subjects with Remission (percentage) (Double Blind Week 16): (44%) | HAMD-17 Remission (Score ≦7): Subjects without Remission (number) (Double Blind Week 16): 63 | HAMD-17 Remission (Score ≦7): Subjects without Remission (percentage) (Double Blind Week 16): (56%) | HAMD-17 Remission (Score ≦10): Subjects with Remission (number) (Double Blind Week 16): 75 | HAMD-17 Remission (Score ≦10): Subjects with Remission (percentage) (Double Blind Week 16): (66%) | HAMD-17 Remission (Score ≦10): Subjects without Remission (number) (Double Blind Week 16): 38 | HAMD-17 Remission (Score ≦10): Subjects without Remission (percentage) (Double Blind Week 16): (34%) | HAMD-17 reduction from baseline ≧50%: Subjects with Response (number) (Double Blind Week 16): 84 | HAMD-17 reduction from baseline ≧50%: Subjects with Response (percentage) (Double Blind Week 16): (74%) | HAMD-17 reduction from baseline ≧50%: Subjects without Response (number) (Double Blind Week 16): 29 | HAMD-17 reduction from baseline ≧50%: Subjects without Response (percentage) (Double Blind Week 16): (26%) | HAMD-17 total score, observed Mean (Double Blind Week 16 LOCF): 9.1 | HAMD-17 total score, observed Median (Double Blind Week 16 LOCF): 8.0 | HAMD-17 Adjusted Mean change [2]: −14.64 | HAMD-17 Mean Difference between TC-5214 and Placebo [2]: 6.10 | HAMD-17 Remission (Score ≦7): Subjects with Remission (number) [3]: 58 | HAMD-17 Remission (Score ≦7): Subjects with Remission (percentage) [3]: (51%) | HAMD-17 Remission (Score ≦7): Subjects without Remission (number) [3]: 55 | HAMD-17 Remission (Score ≦7): Subjects without Remission (percentage) [3]: (49%) | HAMD-17 Remission (Score ≦10): Subjects with Remission (number) [3]: 77 | HAMD-17 Remission (Score ≦10): Subjects with Remission (percentage) [3]: (68%) | HAMD-17 Remission (Score ≦10): Subjects without Remission (number) [3]: 36 | HAMD-17 Remission (Score ≦10): Subjects without Remission (percentage) [3]: (32%) | HAMD-17 reduction from baseline ≧50%: Subjects with Response (number) [3]: 83 | HAMD-17 reduction from baseline ≧50%: Subjects with Response (percentage) [3]: (73%) | HAMD-17 reduction from baseline ≧50%: Subjects without Response (number) [3]: 30 | HAMD-17 reduction from baseline ≧50%: Subjects without Response (percentage) [3]: (27%) | HAMD-17 total score, observed Mean [4]: 8.6 | HAMD-17 total score, observed Median [4]: 7.0 | HAMD-17 Adjusted Mean change [5]: −0.83 | HAMD-17 Mean Difference between TC-5214 and Placebo [5]: −0.01 | primary outcome: mean change between TC-5214 and placebo from baseline on HAM-D (HAMD-17 total score): highly statistically significant in favor of TC-5214 | primary outcome: mean change between TC-5214 and placebo from baseline on HAM-D (HAMD-17 total score) (listed as TC-5214-23): statistically significant favoring TC-5214-23
